The structures appear in SMILES notation.

Broadly, the melting point is the temperature of the solid-liquid transition. `Clc1nc(-c2ccsc2)c2sccc2n1` [Example 156, 2-chloro-4-(3-thienyl)thieno[3,2-d]pyrimidine] returned a melting point of 117.7 to 118.2 °C.
As for `C[Si](C)(C)CCOCn1cc(-c2nc(Cl)nc3ccsc23)cn1`, the figure is 108 to 109 °C; as for `C=CCNc1nc(-c2nccs2)c2sccc2n1` [Example 112, N-allyl-4-(2-thiazolyl)thieno[3,2-d]pyrimidine-2-amine], 128 to 129 °C.
As for `FC(F)(F)c1nc(-c2ccco2)c2sccc2n1` [Example 11, 4-(2-furyl)-2-trifluoromethylthieno[3,2-d]pyrimidine], the figure is 147.6 to 148.8 °C; as for `COc1ccc(CNc2nc(-c3nccs3)c3sccc3n2)cc1OC` [Example 108, N-(3,4-dimethoxybenzyl)-4-(2-thiazolyl)thieno[3,2-d]pyrimidine-2-amine], 178.7 to 179.5 °C.
As for `Cc1ccc(-c2nc(Cl)nc3ccsc23)nc1` [Example 109, 2-chloro-4-(5-methyl-2-pyridyl)thieno[3,2-d]pyrimidine], the melting point was in the range of 221 to 222 °C.
The value for `CCc1nc(-c2nc3ccccc3s2)c2sccc2n1` [Example 122, 4-(2-benzothiazolyl)-2-ethylthieno[3,2-d]pyrimidine] was 131 °C.
As for `Cc1csc2c(-c3ccco3)nc(Cl)nc12` [Example 12, 2-chloro-4-(2-furyl)-7-methylthieno[3,2-d]pyrimidine], the figure is 164.4 to 164.9 °C.
The value for `COc1ccc(CNc2nc(-c3ccco3)c3sccc3n2)cc1OC` [Example 78, N-(3,4-dimethoxybenzyl)-4-(2-furyl)thieno[3,2-d]pyrimidine-2-amine] was 155 to 156 °C; that for `CN(C)c1nc(-c2ccccc2)c2sccc2n1` [Example 159, N,N-dimethyl-4-phenylthieno[3,2-d]pyrimidine-2-amine] was 112.9 to 114.1 °C; that for `OC[C@H]1CCCN1c1nc(-c2ccco2)c2scc(Br)c2n1` [Example 72, (2R)-7-bromo-4-(2-furyl)-2-(2-hydroxymethylpyrrolidin-1-yl)thieno[3,2-d]pyrimidine] was 75.4 to 76.3 °C.
With `Cc1nc(-c2nc(Cl)nc3ccsc23)sc1C` [Example 103, 2-chloro-4-(4,5-dimethyl-2-thiazolyl)thieno[3,2-d]pyrimidine], the melting point was in the range of 240 to 241 °C.
As for `Clc1nc(-c2ccoc2)c2sccc2n1` [Example 160, 2-chloro-4-(3-furyl)thieno[3,2-d]pyrimidine], the figure is 129.3 to 129.9 °C; as for `CCc1nc(-c2nncn2COCC[Si](C)(C)C)c2sccc2n1`, under 100 °C.
The value for `CCc1nc(-c2nncn2C)c2sccc2n1` [Example 187, 2-ethyl-4-(4-methyl-4H-1,2,4-triazol-3-yl)thieno[3,2-d]pyrimidine] was 110.2 to 111.4 °C; that for `CCSc1nc(-c2ccco2)c2sccc2n1` [Example 37, 2-ethylthio-4-(2-furyl)thieno[3,2-d]pyrimidine] was 207 to 208 °C; that for `CN(C)c1nc(-c2ccsc2)c2sccc2n1` [Example 157, N,N-dimethyl-4-(3-thienyl)thieno[3,2-d]pyrimidine-2-amine] was 119 to 119.4 °C.
The value for `CN(C)c1nc(-c2ccco2)c2scc(Br)c2n1` [Example 22, 7-bromo-N,N-dimethyl-4-(2-furyl)thieno[3,2-d]pyrimidine-2-amine] was 118.7 to 119.5 °C; that for `CN(C)c1nc(-c2cnn(C)c2)c2sccc2n1` [Example 186, N,N-dimethyl-4-(1-methyl-1H-pyrazol-4-yl)thieno[3,2-d]pyrimidine-2-amine] was 175.4 to 175.9 °C; that for `CN(C)c1nc(-c2ccco2)c2scc(N)c2n1` [Example 51, 7-amino-N,N-dimethyl-4-(2-furyl)thieno[3,2-d]pyrimidine-2-amine] was 145.8 to 146.5 °C.
On to `CN(C)c1nc(-c2ccco2)c2scc(NC(=O)Nc3ccccc3)c2n1` [Example 55, N-(2-dimethylamino-4-(2-furyl)thieno[3,2-d]pyrimidine-7-yl)-N′-phenylurea], for which the melting point is 244.4 to 244.9 °C.
Compound `Clc1nc(-c2ccccc2)c2sccc2n1` [Example 158, 2-chloro-4-phenylthieno[3,2-d]pyrimidine] displayed a melting point of 146.5 to 147.2 °C.
The value for `OCCNc1nc(-c2cnccn2)c2sccc2n1` [Example 34, N-(2-hydroxyethyl)-4-(2-pyrazinyl)thieno[3,2-d]pyrimidine-2-amine] was 191.5 to 192.4 °C; that for `Cc1cnc(-c2nc(Cl)nc3ccsc23)s1` [Example 102, 2-chloro-4-(5-methyl-2-thiazolyl)thieno[3,2-d]pyrimidine] was 243 to 244 °C.
As for `OCCNc1nc(-c2cc3ccccc3s2)c2sccc2n1` [Example 20, 4-(2-benzothiophenyl)-N-(2-hydroxyethyl)thieno[3,2-d]pyrimidine-2-amine], the figure is 173.4 to 174.4 °C; as for `NC(=O)c1nc(-c2ccco2)c2sccc2n1` [Example 155, 4-(2-furyl)thieno[3,2-d]pyrimidine-2-carboxamide], 300 °C (dec.).
As for `CN(C)c1nc(-c2nccn2CCO)c2sccc2n1` [Example 178, N,N-dimethyl-4-(1-(2-hydroxyethyl)-1H-imidazol-2-yl)thieno[3,2-d]pyrimidine-2-amine], the figure is 162.2 to 164.9 °C; as for `CC(=O)CC(=O)N(C)c1nc(-c2ccco2)c2sccc2n1` [Example 60, N-(4-(2-furyl)thieno[3,2-d]pyrimidine-2-yl)-N-methyl-3-oxobutanamide], 108.3 to 108.6 °C; as for `CCc1nc(-c2nc(CC)nc3ccsc23)c2sccc2n1` [Example 119, 2-ethyl-4-(2-ethylthieno[3,2-d]pyrimidin-4-yl)thieno[3,2-d]pyrimidine], 179 °C.
Consider `CC(=O)Nc1nc(-c2ccco2)c2sccc2n1` [Example 101, N-(4-(2-furyl)thieno[3,2-d]pyrimidin-2-yl)acetamide], for which the melting point was in the range of 193.9 to 195 °C.
The value for `CN(C)c1nc(-c2nccn2COCC[Si](C)(C)C)c2sccc2n1` was 131 to 132 °C; that for `CCOC(=O)Cn1ccnc1-c1nc(N(C)C)nc2ccsc12` [Example 177, N,N-dimethyl-4-((1-ethoxycarbonylmethyl)-1H-imidazol-2-yl)thieno[3,2-d]pyrimidine-2-amine] was 209 to 210 °C; that for `Clc1nc(-c2ccco2)c2sccc2n1` [Example 3, 2-chloro-4-(2-furyl)thieno[3,2-d]pyrimidine] was 146.9 to 147.6 °C.
The value for `CCc1nc(-c2nccn2COC)c2sccc2n1` [Example 179, 2-ethyl-4-(1-methoxymethyl-1H-imidazol-2-yl)thieno[3,2-d]pyrimidine] was 69 to 70 °C; that for `CC(=O)Nc1nc(-c2nccs2)c2sccc2n1` [Example 116, N-(4-(2-thiazolyl)thieno[3,2-d]pyrimidin-2-yl)acetamide] was 242.6 to 243.9 °C.
